Converted amounts (≈) assume the structure as drawn. “And” between values parts separate entries of the source, which are not always exact repeats. Equal values may be shown once. Read-outs that look alike come from different tables or passages of the source. Where only a bound is given, the exact number is not on record here.

Assay [1] deals with Mycobacterium tuberculosis H37Rv. Briefly: in vitro primary screening assay in BACTEC 12B medium, BACTEC 460 radiometric system. In kind it is cell-based. The note with it: for MIC: M. tuberculosis H37Rv; for inhibition at 12.5 µg/mL: H37RV.
The test system of assay [2] is M. tuberculosis H37Rv. Briefly: actual minimum inhibitory concentration (MIC) at lower concentrations, BACTEC 460. In kind it is cell-based. The note with it: Mycobacterium tuberculosis, lowest concentration inhibiting 99% of the inoculum.
Assay [3] has as its system Mtb. Particulars: against Mtb, background section; cited from earlier work.
[4] abbreviates: table of Example 38, 12.5 μg/mL.
The mark [5] stands for this setting: concentration 12.5 μg/mL, BACTEC 12B medium.
Setting [6] is: Mycobacterium tuberculosis, concentration 12.5 μg/mL, BACTEC 12B medium, read-out: inhibition against Mtb H37Rv.
The mark [7] stands for this setting: Mycobacterium tuberculosis, table of Example 38, 12.5 μg/mL, read-out: % Inhibition.
Where [8] appears, read: Mycobacterium tuberculosis, table of Example 38, read-out: MIC.

By % Inhibition is commonly meant the relative decrease from the control value, in per cent. One may read the MIC as the lowest concentration that inhibits growth of the organism. On to `CCCc1cc(=O)oc2c3c(c4c(c12)OC(C)(C)CC4)OC(C)C(C)C3=O` (racemic) [(±)-Trans-dihydroketone, (±)-10,11-trans-4-Propyl-7,8,10,11-tetrahydro-6,6,10,11-tetramethyl-2 H,6 H,12 H-benzo[1,2-b:3,4-b′:5,6-b″]tripyran-2,12-dione], for which the “% Inhibition” value in assay [1] (setting [4]) was 43%. Moreover, the “MIC” value in assay [1] (table of Example 38) was below 12.5 µg/mL.
`CO[C@H]1/C=C/O[C@@]2(C)Oc3c(C)c(O)c4c(O)c(c(/C=N/N5CCN(C)CC5)c(O)c4c3C2=O)NC(=O)/C(C)=C\C=C\[C@H](C)[C@H](O)[C@@H](C)[C@@H](O)[C@@H](C)[C@H](OC(C)=O)[C@@H]1C` [rifampicin] returned an MIC in assay [2] of 0.06 µg/mL (≈ 0.0729 µM).
In the case of `NC(=O)c1cnccn1` [Pyrazinamide], the MIC in assay [3] was 20 µg/mL (≈ 162 µM).
“(−)-7,8-dihydrosoulattrolide [(−)-7,8-Dihydrosoulatrolide]”: the “inhibition against Mtb H37Rv” value in assay [1] (setting [5]) came out at 99%. Also, the “% Inhibition” value in assay [1] (setting [4]) is 99%. The “MIC” value in assay [1] (table of Example 38) was below 12.5 µg/mL.
For (+)-Calanolide A, the “inhibition against Mtb H37Rv” value in assay [1] (setting [5]) was 98% and 96%.
In the case of `CCCc1cc(=O)oc2c3c(c4c(c12)OC(C)(C)C=C4)OC(C)C(C)C3=O` (racemic) [(±)-Trans-ketone, 10,11-trans-dihydro-4-propyl-6,6,10,11-tetramethyl-2 H,6 H,12 H-benzo[1,2-b:3,4b′:5,6-b″]-tripyran-2,12-dione], the “% Inhibition” value in assay [1] (setting [4]) was 59%. Further, the “MIC” value in assay [1] (table of Example 38) is below 12.5 µg/mL.
One may read the inhibition as the share of the control response that was lost under treatment. For `CCCc1cc(=O)oc2c3c(c4c(c12)OC(C)(C)C=C4)O[C@@H](C)[C@H](C)[C@@H]3O` [Costatolide, (−)-calanolide B], the inhibition at 12.5 µg/mL in assay [1] (setting [6]) and in assay [1] (setting [7]) was 99% in each case. For the same molecule, the MIC in assay [1] (setting [8]) is below 12.5 µg/mL.
On to (−)-Calanolide A, for which, in assay [1] (setting [5]), the “inhibition against Mtb H37Rv” value came out at 98%.
As for `C[C@H]1[C@H](C)Oc2c3c(c4c(-c5ccccc5)cc(=O)oc4c2[C@H]1O)OC(C)(C)C=C3` [Soulattrolide], the inhibition at 12.5 µg/mL in assay [1] (setting [6]) and in assay [1] (setting [7]) was 99% throughout. In addition, the MIC in assay [1] (setting [8]) is below 12.5 µg/mL.
Turning to `CCCc1cc(=O)oc2c3c(c4c(c12)OC(C)(C)C=C4)OC(C)C(C)C3=O` (single isomer, unassigned; (-)) [(−)-Trans-ketone], the “% Inhibition” value in assay [1] (setting [4]) is 78%. Moreover, the “MIC” value in assay [1] (table of Example 38) was below 12.5 µg/mL.

The values are drawn from patent US20010027209A1, “Method and composition for treating and preventing mycobacterium infections” (Sarawak Medichem Pharmaceuticals, Inc., priority 1998, published 2001).
